Data as given in the supplement of paper PMC12406974.

Assays:
Assay in all cases: maximum observed lethal fraction; higher = more cell death
[1] = tested on: U2OS BAX/BAK1 DKO
[2] = tested on: U2OS BCL2L12-KO
[3] = tested on: U2OS PTBP1-KO
[4] = tested on: U2OS
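Also: FLICK assay: SYTOX Green fluorescence of dead cells tracked over time after drugging in 96-well plates, with total cell counts taken from Triton X-100 lysed wells.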

C/C=C(/C)C(=O)O[C@H]1C(C)=C2[C@H]([C@@H]1OC(=O)CCCCCCC)[C@@](C)(OC(C)=O)C[C@H](OC(=O)CCC)[C@@]1(O)[C@H]2OC(=O)[C@@]1(C)O [Thapsigargin]
maximum observed lethal fraction
Details | 0.0316 µM | 0.1 µM | 0.316 µM | 1 µM | 3.16 µM | 10 µM | 31.6 µM
[1] | 0.0914 | 0.192 | 0.171 | 0.266 | 0.163 | 0.811 | 0.884
[2] | 0.631 | 0.675 | 0.688 | 0.71 | 0.721 | 0.779 | 0.892
[3] | 0.228 | 0.265 | 0.324 | 0.296 | 0.48 | 0.831 | 0.892
[4] | 0.405 | 0.476 | 0.473 | 0.602 | 0.585 | 0.763 | 0.862

CC[C@@]1(O)C(=O)OCc2c1cc1n(c2=O)Cc2cc3c(CN(C)C)c(O)ccc3nc2-1 [Topotecan]
maximum observed lethal fraction
Details | 0.0316 µM | 0.1 µM | 0.316 µM | 1 µM | 3.16 µM | 10 µM | 31.6 µM
[1] | 0.0741 | 0.0822 | 0.0765 | 0.0845 | 0.0931 | 0.0974 | 0.177
[2] | 0.0781 | 0.0819 | 0.0871 | 0.0968 | 0.208 | 0.495 | 0.798
[3] | 0.0741 | 0.0838 | 0.0808 | 0.0858 | 0.106 | 0.197 | 0.329
[4] | 0.0699 | 0.0706 | 0.0756 | 0.0868 | 0.233 | 0.5 | 0.683

Nc1ccc(-c2ccc3ncc4ccc(=O)n(-c5cccc(C(F)(F)F)c5)c4c3c2)cn1 [Torin2]
maximum observed lethal fraction
Details | 0.0316 µM | 0.1 µM | 0.316 µM | 1 µM | 3.16 µM | 10 µM | 31.6 µM
[1] | 0.0705 | 0.0756 | 0.0765 | 0.0833 | 0.0776 | 0.0881 | 0.272
[2] | 0.104 | 0.181 | 0.249 | 0.362 | 0.467 | 0.629 | 0.443
[3] | 0.0906 | 0.107 | 0.196 | 0.276 | 0.363 | 0.436 | 0.421
[4] | 0.0812 | 0.0904 | 0.197 | 0.299 | 0.435 | 0.589 | 0.396

CC(C)[C@]12O[C@H]1[C@@H]1O[C@]13[C@]1(O[C@H]1C[C@H]1C4=C(CC[C@@]13C)C(=O)OC4)[C@@H]2O [Triptolide]
maximum observed lethal fraction
Details | 0.001 µM | 0.00316 µM | 0.01 µM | 0.0316 µM | 0.1 µM | 0.316 µM | 1 µM
[1] | 0.0639 | 0.067 | 0.0751 | 0.0882 | 0.0915 | 0.0939 | 0.0919
[2] | 0.0575 | 0.0652 | 0.073 | 0.378 | 0.23 | 0.282 | 0.309
[3] | 0.0668 | 0.0699 | 0.085 | 0.24 | 0.206 | 0.223 | 0.286
[4] | 0.0606 | 0.0621 | 0.161 | 0.621 | 0.521 | 0.616 | 0.638

CC(=O)N[C@H]1[C@@H](O[C@@H]2O[C@H](CC(O)[C@H]3O[C@@H](n4ccc(=O)[nH]c4=O)[C@H](O)[C@@H]3O)[C@H](O)[C@H](O)[C@H]2NC(=O)/C=C/CC(C)C)O[C@H](CO)[C@@H](N)[C@@H]1O (stereo partly specified) [Tunicamycin]
maximum observed lethal fraction
Details | 0.01 µM | 0.0316 µM | 0.1 µM | 0.316 µM | 1 µM | 3.16 µM | 10 µM
[1] | 0.0556 | 0.0546 | 0.0609 | 0.0665 | 0.0788 | 0.089 | 0.0844
[2] | 0.0673 | 0.0693 | 0.0857 | 0.196 | 0.58 | 0.86 | 0.873
[3] | 0.0696 | 0.0731 | 0.0724 | 0.0808 | 0.104 | 0.345 | 0.533
[4] | 0.0548 | 0.0561 | 0.0662 | 0.0886 | 0.347 | 0.692 | 0.82

O=C(CCCCCCC(=O)Nc1ccccc1)NO [Vorinostat]
maximum observed lethal fraction
Details | 0.1 µM | 0.316 µM | 1 µM | 3.16 µM | 10 µM | 31.6 µM | 100 µM
[1] | 0.0548 | 0.0545 | 0.0635 | 0.0731 | 0.0736 | 0.081 | 0.084
[2] | 0.0673 | 0.0704 | 0.185 | 0.586 | 0.804 | 0.824 | 0.899
[3] | 0.0673 | 0.0682 | 0.0906 | 0.316 | 0.481 | 0.558 | 0.513
[4] | 0.0571 | 0.0602 | 0.0901 | 0.458 | 0.659 | 0.778 | 0.811

C=CC(=O)Nc1ccc(C(=O)Nc2[nH]nc3c2CN(C(=O)N[C@H](CN(C)C)c2ccccc2)C3(C)C)cc1 [YKL-5-124]
maximum observed lethal fraction
Details | 0.0316 µM | 0.1 µM | 0.316 µM | 1 µM | 3.16 µM | 10 µM | 31.6 µM
[1] | 0.0674 | 0.0739 | 0.0839 | 0.0802 | 0.0829 | 0.0948 | 0.1
[2] | 0.0697 | 0.0761 | 0.0812 | 0.0841 | 0.0923 | 0.115 | 0.49
[3] | 0.0724 | 0.0809 | 0.0854 | 0.0868 | 0.0884 | 0.1 | 0.252
[4] | 0.0634 | 0.0827 | 0.0923 | 0.161 | 0.221 | 0.274 | 0.461
